Results on twelve compounds are retold here after patent US11046714B2, “2,2-difluorodioxolo A2A receptor antagonists” (Merck Sharp & Dohme Corp., priority 2013, dated 2021).

The target in this experiment is human A2A receptor (Homo sapiens (Human), UniProt P29274). The experiment can be described thus: competition binding assay using Scintillation Proximity technology. Conditions: membranes from CHO-K1 cells expressing the human A2a receptor; 2.0 nM tritiated compound; Cheng-Prusoff. As for the experimental part: The utility of the compounds in accordance with the present invention as A2A receptor antagonists may be readily determined without undue experimentation by methodologies well known in the art, including by a competition binding assay using Scintillation Proximity technology. Briefly, membranes from CHO-K1 cells expressing the human A2A receptor are incubated with a test compound at various concentrations, e.g., ranging from 3000 nM to 0.15 nM, in a reaction mixture also containing a tritiated form of 5-amino-7-[2-phenethyl]-2-(furan-2-yl)-7H-pyrazolo[4,3-e][1,2,4]triazolo[1,5-c]pyrimidine (the tritiated compound) and wheatgerm agglutin-coated yttrium silicate SPA beads at room temperature. The beads are then allowed to settle to the bottom of the wells, after which the membrane-associated radioactivity is determined by scintillation counting in a microplate reader. Ki values can be determined using the Cheng-Prusoff equation.
Thus, 1.0 μg of membranes from CHO-K1 cells expressing the human A2a receptor were incubated with a compound of the invention at concentrations ranging from 3000 nM to 0.15 nM in a reaction mixture also containing 2.0 nM of a tritiated form of 5-amino-7-[2-phenethyl]-2-(furan-2-yl)-7H-pyrazolo[4,3-e][1,2,4]triazolo[1,5-c]pyrimidine (the tritiated compound) and 100 μg of wheatgerm agglutin-coated yttrium silicate SPA beads for one hour at room temperature with agitation. The beads were then allowed to settle to the bottom of the wells for 1 hr, after which the membrane-associated radioactivity was determined by scintillation counting in a TopCount microplate reader. Ki values were determined using the Cheng-Prusoff equation.
Summary of Materials and Methods Used in A2a Activity Determination:
• Membranes from CHO-K1 cells expressing the human Adenosine2A receptor (Perkin-Elmer #RBHA2AM400UA). • The tritiated compound was prepared according to published methods. • Wheatgerm agglutinin-coated yttrium silicate SPA beads (GE Healthcare #RPNQ0023). Dilute to 25 mg/ml in Assay Buffer. • Assay Buffer: Dulbecco's calcium and magnesium free phosphate buffered saline+10 mM MgCl2 • Adenosine deaminase (ADA) from calf intestine, 10 mg/2 ml (Roche #10 102 105 001). • DMSO • A2a antagonist standard (9-chloro-1-(2-furanyl)-[1,2,4]triazolo[1,5-c]quinazolin-5-amine from Tocris Bioscience) Compound Dilution • Make eight 1:3 serial dilutions in 100% DMSO from a 3 mM compound stock. • Transfer 50 nL of compound into a 384-well OptiPlate (Perkin Elmer). • Typically, final concentrations of compound used in the assay ranged from 3000 nM to 0.152 nM. Radioisotope • Dilute a solution of the tritiated compound to 5.0 nM in assay buffer. This is a 2.5× solution. The final concentration in the assay is 2.0 nM. Calculate the concentration by counting two 5 μL aliquots. Membrane Preparation • Use 1.0 μg of membrane/well. Dilute membranes to 33 μg/mL in assay buffer. Treat with 20 μg/mL ADA for 15 minutes at room temperature to degrade endogenous adenosine. Membrane-Bead Mixture • Use 100 μg/well wheatgerm agglutinin-coated yttrium silicate SPA beads. • Mix ADA-treated membranes and SPA beads together for 30 min prior to assay. Assay Assembly • To the Perkin-Elmer Optiplate-384 containing the compound titration add 20 μL of 2.5× solution of the tritiated compound and 30 μL of the membrane-bead mixture. Incubate for one hour at room temperature with agitation. • Include total binding (assay buffer+1% DMSO) and non-specific binding (CGS 15943, 1 μM) wells. Counting • Allow the beads to settle for one hour. • Count in TopCount. Calculations • A curve fitting program (i.e., Prism, Activity Base, Chemcart) is used to determine the EC50. The Ki value is calculated using the Cheng-Prusoff equation. Ki=EC50/(1+(radioligand concentration/Kd))
On the technique in general: In a scintillation proximity assay essentially only radioactivity close to the scintillant gives light.

Sequence of human A2A receptor (P29274 whole entry): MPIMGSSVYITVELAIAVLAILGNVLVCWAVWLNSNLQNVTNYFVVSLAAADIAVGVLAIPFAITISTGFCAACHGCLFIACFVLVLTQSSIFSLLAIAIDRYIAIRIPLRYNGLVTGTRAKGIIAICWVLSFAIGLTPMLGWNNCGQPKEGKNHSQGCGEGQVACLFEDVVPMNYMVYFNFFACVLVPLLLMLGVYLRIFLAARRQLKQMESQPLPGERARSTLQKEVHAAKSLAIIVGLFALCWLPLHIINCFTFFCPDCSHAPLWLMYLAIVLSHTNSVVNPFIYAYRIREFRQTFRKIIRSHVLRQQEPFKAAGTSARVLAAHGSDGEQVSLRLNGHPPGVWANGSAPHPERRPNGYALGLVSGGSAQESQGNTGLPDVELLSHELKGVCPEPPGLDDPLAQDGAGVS

Broadly, the Ki is a measure of affinity in units of concentration, obtained from inhibition or displacement. `Nc1nc2c3c(ccc2c2nc(CCN4CCc5nc(C6CC6)oc5C4)nn12)OC(F)(F)O3` [Example 14, 8-[2-(2-cyclopropyl-6,7-dihydro[1,3]oxazolo[5,4-c]pyridin-5(4H)-yl)ethyl]-2,2-difluoro[1,3]dioxolo[4,5-h][1,2,4]triazolo[1,5-c]quinazolin-5-amine] came in with a Ki of 0.9 nM.

`CC(C)(Cc1nc2c3ccc4c(c3nc(N)n2n1)OC(F)(F)O4)N1CC(F)C1` [Example 101, 2,2-difluoro-8-(2-(3-fluoroazetidin-1-yl)-2-methylpropyl)-[1,3]dioxolo[4,5-h][1,2,4]triazolo[1,5-c]quinazolin-5-amine] registered an inhibitory constant (Ki) of 31 nM.

In turn, `Nc1nc2c3c(ccc2c2nc(CCN4Cc5ccc(C(F)(F)F)cc5C4)nn12)OC(F)(F)O3` [Example 7, 2,2-difluoro-8-{2-[5-(trifluoromethyl)-1,3-dihydro-2H-isoindol-2-yl]ethyl}[1,3]-dioxolo[4,5-h][1,2,4]triazolo [1,5-c]quinazolin-5-amine] displayed an inhibition constant Ki of 3.1 nM.

Consider `Nc1nc2c3c(ccc2c2nc(CCN4CC(F)C4)nn12)OC(F)(F)O3` [Example 15, 2,2-difluoro-8-[2-(3-fluoroazetidin-1-yl)ethyl] [1,3]dioxolo[4,5-h][1,2,4] triazolo[1,5-c]quinazolin-5-amine], for which the Ki is 2.5 nM.

Consider `C[C@H](Cc1nc2c3ccc4c(c3nc(N)n2n1)OC(F)(F)O4)N1CCCC(C)(F)C1` (single isomer, unassigned) [Example 85, 2,2-difluoro-8-{(2R)-2-[(3R or 3S)-3-fluoro-3-methylpiperidin-1-yl]propyl}[1,3]dioxolo[4,5-h][1,2,4]triazolo[1,5-c]quinazolin-5-amine], for which the Ki is 12 nM.

`Nc1nc2c3c(ccc2c2nc([C@H]4CC[C@H](N5CCCC(F)(F)C5)C4)nn12)OC(F)(F)O3` [Example 160, 8-[(1S,3S)-3-(3,3-difluoropiperidin-1-yl)cyclopentyl]-2,2-difluoro[1,3]dioxolo[4,5-h][1,2,4]triazolo[1,5-c]quinazolin-5-amine] came in with an inhibition constant Ki of 16 nM.

Compound `Cc1nc2c(s1)CN([C@H](C)Cc1nc3c4ccc5c(c4nc(N)n3n1)OC(F)(F)O5)CC2` [Example 80, 2,2-difluoro-8-[(2R)-2-(2-methyl-6,7-dihydro[1,3]thiazolo[5,4-c]pyridin-5(4H)-yl)propyl][1,3] dioxolo[4,5-h][1,2,4]triazolo [1,5-c]quinazolin-5-amine] displayed a Ki of 2.6 nM.

Compound `C[C@H](Cc1nc2c3ccc4c(c3nc(N)n2n1)OC(F)(F)O4)N1CCc2cccnc21` [Example 75, 8-[(2R)-2-(2,3-dihydro-1H-pyrrolo [2,3-b]pyridin-1-yl)propyl]-2,2-difluoro[1,3]dioxolo[4,5-h][1,2,4] triazolo[1,5-c]quinazolin-5-amine] came in with a Ki of 4.2 nM.

Turning to `COC(=O)C(Cc1nc2c3ccc4c(c3nc(N)n2n1)OC(F)(F)O4)C(=O)OC` [Example 148, dimethyl [(5-amino-2,2-difluoro[1,3]dioxolo[4,5-h][1,2,4]triazolo[1,5-c]quinazolin-8-yl)methyl]propanedioate], the inhibition constant (Ki) is 2 nM.

`Nc1nc2c3c(ccc2c2nc(CCN4Cc5ccncc5C4)nn12)OC(F)(F)O3` [Example 11, 8-[2-(1,3-dihydro-2H-pyrrolo[3,4-c]pyridin-2-yl)ethyl]-2,2-difluoro[1,3] dioxolo[4,5-h][1,2,4]triazolo [1,5-c]quinazolin-5-amine]: the Ki was determined as 2.1 nM.

Compound `Nc1nc2c3c(ccc2c2nc(C4CCCN(c5cc(F)cc(F)c5)C4)nn12)OC(F)(F)O3` (single isomer, unassigned) [Example 144, (R or S)-8-[1-(3,5-difluorophenyl)piperidin-3-yl]-2,2-difluoro[1,3] dioxolo[4,5-h][1,2,4]triazolo[1,5-c]quinazolin-5-amine] came in with an inhibitory constant (Ki) of 1.2 nM.

Compound `Nc1nc2c3c(ccc2c2nc(Cn4nc(C(F)(F)F)cc4C(F)(F)F)nn12)OC(F)(F)O3` [Example 130, 8-{[3,5-bis(trifluoromethyl)-1H-pyrazol-1-yl]methyl}-2,2-difluoro [1,3]dioxolo[4,5-h][1,2,4]triazolo [1,5-c]quinazolin-5-amine] returned a Ki of 3.9 nM.
